How the values were obtained:
[1] = target: T1, DnaA (wtDnaA) (Escherichia coli, UniProt P03004, H202Y); test: ATP binding assay
T1 sequence (P03004 1-467 H202Y): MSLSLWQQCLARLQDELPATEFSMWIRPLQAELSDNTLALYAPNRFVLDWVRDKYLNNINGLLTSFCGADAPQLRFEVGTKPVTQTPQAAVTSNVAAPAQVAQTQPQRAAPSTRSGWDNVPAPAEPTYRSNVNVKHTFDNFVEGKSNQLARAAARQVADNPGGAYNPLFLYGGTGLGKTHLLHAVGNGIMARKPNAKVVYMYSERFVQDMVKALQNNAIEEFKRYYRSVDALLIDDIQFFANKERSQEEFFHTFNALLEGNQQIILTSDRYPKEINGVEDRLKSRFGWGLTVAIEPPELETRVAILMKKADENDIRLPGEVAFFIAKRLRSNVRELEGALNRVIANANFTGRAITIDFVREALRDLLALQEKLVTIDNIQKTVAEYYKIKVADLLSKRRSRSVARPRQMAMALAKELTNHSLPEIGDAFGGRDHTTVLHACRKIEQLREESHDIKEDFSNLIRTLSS

[2] = target: Hda (E. coli) (UniProt P69931); test: SEC

Molecule	Kd [1] [µM]	stoichiometry N [2]
Nc1ncnc2c1ncn2[C@@H]1O[C@H](COP(=O)(O)OP(=O)(O)OP(=O)(O)O)[C@@H](O)[C@H]1O [ATP]	0.36	
Hda (from UniProt P69931 1-233) (natural protein)		2

Reference: publication PMC3905854 (Nucleic Acids Research, 2013)
